{
  "source": "patent US6630612B2",
  "about": "“5-HT3 receptor assay using transgenic mammal” (University of New Mexico, priority 1997, dated 2003)",
  "key": {"5-HT3 receptor [1]": {"biological_target": "T1, 5-HT3 receptor (Mus musculus, UniProt P23979)", "T1 construct": "cortices and cerebelli were removed and homogenized by hand in ice cold Hepes buffer; from tissue; host or cells: Washed membranes from cortex, cerebellum, liver, lung, heart, spleen, kidney, small intestine, testis and skeletal muscle of transgenic and B6SJL/F1 control mice", "T1 sequence (P23979 24-489)": "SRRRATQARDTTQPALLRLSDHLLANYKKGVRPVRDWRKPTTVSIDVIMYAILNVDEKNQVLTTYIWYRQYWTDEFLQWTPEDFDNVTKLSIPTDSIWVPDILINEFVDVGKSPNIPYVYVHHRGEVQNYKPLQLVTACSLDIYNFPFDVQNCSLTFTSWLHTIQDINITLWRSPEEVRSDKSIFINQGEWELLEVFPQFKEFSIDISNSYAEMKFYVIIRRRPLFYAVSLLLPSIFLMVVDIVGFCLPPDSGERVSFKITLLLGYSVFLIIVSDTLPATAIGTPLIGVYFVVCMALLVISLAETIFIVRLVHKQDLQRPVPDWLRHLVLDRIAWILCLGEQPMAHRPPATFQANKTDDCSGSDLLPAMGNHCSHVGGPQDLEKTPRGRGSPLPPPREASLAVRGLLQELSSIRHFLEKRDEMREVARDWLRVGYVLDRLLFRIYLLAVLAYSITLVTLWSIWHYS", "experiment": "Specific binding with 3H-GR65630 in membranes from various tissues of transgenic and B6SJL/F1 control mice", "conditions": "Cortex membranes, transgenic mice", "description": "(§1) For homogenate binding studies, cortices and cerebelli were removed and homogenized by hand in ice cold Hepes buffer (50 mM, pH 7.5) and centrifuged at 500 g for 5 minutes at 4° C. Liver, lung, heart, spleen, kidney, small intestines, testes, and skeletal muscle (from hind limb) were homogenized with an Omni tissue chopper. Membranes were pelleted by centrifugation at 20,000 g for 20 minutes at 4° C. and the pellets washed twice before suspension to 3 mg/ml in a buffer containing 145 mM NaCl, 5 mM KCl, 1, mM MgCl2, 1 mM CaCl2, 10 mM glucose, and 10 mM TRIS, pH 7.5. Saturation curves were carried out with 0.0125-25 nM ^3H-GR65630 at 37° C. for 30 minutes with 300 μg total protein. Incubation was terminated by dilution with ×10 volume (5 ml) of ice-cold buffer followed by rapid filtration onto Whatman GF/B filters. Filters were washed twice with 5 ml ice-cold buffer and counted by scintillation counting in EcoLite (ICN) scintillation cocktail. Non-specific binding (NSB) was determined with 0.125-256 μM tropisetron. Displacement binding was carried out the same as saturation binding except with 1 nM ^3H-GR65630 and NSB defined with 10 μM tropisetron. Protein concentrations were determined by Folin phenol reagent (Lowry et al., J. Biol. Chem. 193: 256-275, 1951)."}, "5-HT3 receptor [2]": {"tested_on": "5-HT3 receptor", "experiment": "Specific binding with 3H-GR65630 in membranes from various tissues of transgenic and B6SJL/F1 control mice", "parameters": "species or system mouse", "description": "as §1"}, "5-HT3 receptor [3]": {"biological_target": "T1, 5-HT3 receptor", "experiment": "Homogenate saturation binding with 3H-GR65630 in cortical membranes of transgenic and B6SJL/F1 control mice", "description": "as §1"}, "5-HT3 receptor [4]": {"tested_on": "5-HT3 receptor", "experiment": "Homogenate saturation binding with 3H-GR65630 in cortical membranes of transgenic and B6SJL/F1 control mice", "parameters": "species or system mouse", "conditions": "cortical membranes, B6SJL/F1 control mice", "description": "as §1"}, "[5]": {"conditions": "cortical membranes, 5-HT3 transgenic mice"}},
  "note": "“And” between values parts separate entries of the source, which are not always exact repeats. Equal values may be shown once.",
  "data": [
    {"molecule": "Cc1[nH]cnc1CCC(=O)c1cn(C)c2ccccc12", "note": "[^3H-GR65630]", "values": [
      {"measurement": "Specific binding (means ± SEM)", "setting": "5-HT3 receptor [1]", "value": "969.6 ± 190.5", "unit": "fmol/mg protein"},
      {"measurement": "Specific binding (means ± SEM)", "setting": "5-HT3 receptor [2]; Cortex membranes, B6SJL/F1 control mice", "value": "7.2 ± 2.9", "unit": "fmol/mg protein"},
      {"measurement": "Specific binding (means ± SEM)", "setting": "5-HT3 receptor [2]; Heart membranes, B6SJL/F1 control mice", "value": "0.25 ± 5.4", "unit": "fmol/mg protein"},
      {"measurement": "Specific binding (means ± SEM)", "setting": "5-HT3 receptor [2]; Heart membranes, transgenic mice", "value": "3.9 ± 1.8", "unit": "fmol/mg protein"},
      {"measurement": "Specific binding (means ± SEM)", "setting": "5-HT3 receptor [2]; Kidney membranes, B6SJL/F1 control mice", "value": "3.9 ± 3.1", "unit": "fmol/mg protein"},
      {"measurement": "Specific binding (means ± SEM)", "setting": "5-HT3 receptor [2]; Kidney membranes, transgenic mice", "value": "16.9 ± 8.0", "unit": "fmol/mg protein"},
      {"measurement": "Specific binding (means ± SEM)", "setting": "5-HT3 receptor [2]; Lung membranes, transgenic mice", "value": "2.7 ± 4.1", "unit": "fmol/mg protein"},
      {"measurement": "Specific binding (means ± SEM)", "setting": "5-HT3 receptor [2]; Skeletal muscle membranes, B6SJL/F1 control mice", "value": "2.7 ± 0.4", "unit": "fmol/mg protein"},
      {"measurement": "Specific binding (means ± SEM)", "setting": "5-HT3 receptor [2]; Skeletal muscle membranes, transgenic mice", "value": "8.0 ± 2.7", "unit": "fmol/mg protein"},
      {"measurement": "Specific binding (means ± SEM)", "setting": "5-HT3 receptor [2]; Small intestines membranes, B6SJL/F1 control mice", "value": "26.6 ± 11.0", "unit": "fmol/mg protein"},
      {"measurement": "Specific binding (means ± SEM)", "setting": "5-HT3 receptor [2]; Small intestines membranes, transgenic mice", "value": "26.0 ± 7.7", "unit": "fmol/mg protein"},
      {"measurement": "Specific binding (means ± SEM)", "setting": "5-HT3 receptor [2]; Spleen membranes, B6SJL/F1 control mice", "value": "1.7 ± 3.9", "unit": "fmol/mg protein"},
      {"measurement": "Specific binding (means ± SEM)", "setting": "5-HT3 receptor [2]; Spleen membranes, transgenic mice", "value": "8.2 ± 7.2", "unit": "fmol/mg protein"},
      {"measurement": "Bmax", "setting": "5-HT3 receptor [3]; [5]", "value": "2155 fmol/mg protein and 2155±129 fmol/mg protein"},
      {"measurement": "Hill no. (Hill plot slope)", "setting": "5-HT3 receptor [3]; [5]", "value": 1.0},
      {"measurement": "Kd", "setting": "5-HT3 receptor [3]; [5]", "value": 1.7, "unit": "nM"},
      {"measurement": "Bmax", "setting": "5-HT3 receptor [3]; transgenic mice membranes", "value": 2.5, "unit": "pmol/mg protein"},
      {"measurement": "Bmax", "setting": "5-HT3 receptor [4]", "value": "21 fmol/mg protein and 21±10 fmol/mg protein"},
      {"measurement": "Kd", "setting": "5-HT3 receptor [4]; n=3 (FIG. 2 legend, unit inferred)", "value": "1.6 ± 2.3", "unit": "nM"}
    ]}
  ]
}
